Like-named read-outs stand apart in the source and are kept apart here.
Tests used:
Format in all cases: cell-based
[1] = Hoechst 33342 nuclear staining (48 h read-out)
Procedure: (§1) A) Hoechst 33342 Nuclear Staining
(§2) This assay is performed in 96 well tissue culture plates. Appropriate number of cells (adherent cells: 3-5*10^3, suspension cells: 8-10*10^3) are being seeded out in 80 μl complete medium. Adherent cells are incubated for 24 h for proper spreading out before addition of test compounds while suspension cells are immediately treated with test compounds after seeding out. The test compounds are added in 20 μl complete medium containing max 5% DMSO. The final compound concentrations in the assays are in the range of 0.001 μM-10 μM. After 24 h or 48 h incubation at culture conditions, 10 μl medium containing Hoechst 33342 dye (Sigma B-2261) at 2-5 μg/ml are added to each well. The assay plates are then further incubated for 30 minutes and subsequently analyzed with a standard inverted fluorescence microscope.
(§3) The readout allows the determination of the fraction of apoptotic nuclei as well as other morphological criteria specific for apoptosis as a function of the treatment. The scores A, B, C and D are explained at the end of the Table.

[2] = system: tumor cells; test: Hoechst 33342 nuclear staining (48 h read-out)
Procedure: as §1, §2, §3

[3] = MTS proliferation assay (72 h read-out); conditions: MRC5 cells
Procedure: (§4) B) MTS Proliferation Assay
(§5) The assay is performed in 96 well tissue culture plates. The cells (range: 1.5*10^3-10^4) are seeded out in 80 μl complete medium 24 h prior to compound treatment. The test compounds are added in 20 μl complete medium containing max 5% DMSO. The final compound concentrations in the assays are in the range of 0.001 μM-10 μM. The assay plates are incubated for 72 h at culture conditions. The MTS reagent is prepared according to the manufacturer's protocol (Promega G1111). 20 μl MTS reagent are added to each well; the assay plates are quickly spun and incubated for another 3 h at culture conditions. Subsequently, the plates are shortly shaked and absorption measured with a microplate-reader at 492 nm. The scores A, B, C and D are explained at the end of the Table.

[4] = system: tumor cells; test: MTS proliferation assay (72 h read-out)
Procedure: as §4, §5

[5] = Mitochondrial membrane potential, JC-1 (read-out 48 h); conditions: PBL, JC-1, 48 h
Procedure: (§6) D) Mitochondrial Membrane Potential
as §2, with “The final compound concentrations in the assays are in the range of 0.001 μM-10 μM.” left out, “JC-1 (Molecular Probes, T-3168)” for “Hoechst 33342 dye (Sigma B-2261)”, “microscope by using the FITC and TRITC filters.” for “microscope.”
(§7) The readout allows the determination of the fraction of cells which show a dissipation of the mitochondrial membrane potential strongly indicating an apoptotic cell death as a function of the treatment. The scores A, B, C and D are explained at the end of the Table.

[6] = system: tumor cells; test: as above; conditions: JC-1, 48 h
Procedure: as §6
as §2, with “The final compound concentrations in the assays are in the range of 0.001 μM-10 μM.” left out, “JC-1 (Molecular Probes, T-3168)” for “Hoechst 33342 dye (Sigma B-2261)”, “microscope by using the FITC and TRITC filters.” for “microscope.”
as §7

[7] = MRC5 cells, read-out: Hoechst 33342 nuclear staining EC50, MRC5
[8] = PBL, read-out: Hoechst 33342 nuclear staining EC50, PBL
[9] = HeLa cells, read-out: Hoechst 33342 nuclear staining EC50, HeLa
[10] = Jily cells, read-out: Hoechst 33342 nuclear staining EC50, Jily
[11] = Jurkat cells, read-out: Hoechst 33342 nuclear staining EC50, Jurkat
[12] = HT1080 cells, read-out: MTS proliferation assay IC50, HT1080
[13] = HeLa cells, read-out: MTS proliferation assay IC50, HeLa
[14] = Jily cells, read-out: MTS proliferation assay IC50, Jily
[15] = Jurkat cells, read-out: MTS proliferation assay IC50, Jurkat
[16] = HeLa cells, read-out: Mitochondrial membrane potential (read-out 48 h) HeLa
[17] = Jily cells, read-out: Mitochondrial membrane potential (read-out 48 h) Jily
[18] = Jurkat cells, read-out: Mitochondrial membrane potential (read-out 48 h) Jurkat
[19] = MCF7 cells, read-out: Mitochondrial membrane potential (read-out 48 h) MCF7
[20] = Homo sapiens, MRC5 cells, read-out: Hoechst 33342 nuclear staining EC50, MRC5
[21] = Homo sapiens, HeLa cells, read-out: Hoechst 33342 nuclear staining EC50, HeLa
[22] = Homo sapiens, Jurkat cells, read-out: Hoechst 33342 nuclear staining EC50, Jurkat
[23] = Homo sapiens, HT-1080, HT1080 cells, read-out: MTS proliferation assay IC50, HT1080
[24] = Homo sapiens, HeLa cells, read-out: MTS proliferation assay IC50, HeLa
[25] = Homo sapiens, Jurkat cells, read-out: MTS proliferation assay IC50, Jurkat
[26] = Homo sapiens, HeLa cells, read-out: Mitochondrial membrane potential (read-out 48 h) HeLa
[27] = Homo sapiens, Jurkat cells, read-out: Mitochondrial membrane potential (read-out 48 h) Jurkat
[28] = Homo sapiens, MCF7 cells, read-out: Mitochondrial membrane potential (read-out 48 h) MCF7

SMILES	EC50 [1, 8]	EC50 [2, 9]	EC50 [2, 10]	EC50 [2, 11]	IC50 [4, 12]	IC50 [4, 13]	IC50 [4, 14]	IC50 [4, 15]	EC50 [5]	EC50 [6, 16]	EC50 [6, 17]	EC50 [6, 18]	EC50 [6, 19]	EC50 [1, 7]	IC50 [3]	other results
CN(C)CCOc1ccccc1C(=O)c1oc2ccc(Cl)cc2c1N [Example 11]	> 1000 nM	> 1000 nM	> 1000 nM	> 1000 nM	> 1000 nM	> 1000 nM	> 1000 nM	> 1000 nM	> 1000 nM	> 1000 nM	> 1000 nM	> 1000 nM	> 1000 nM	> 1000 nM	> 1000 nM	–
CN(C)c1ncccc1C(=O)c1oc2ccc(Cl)cc2c1N [Example 77]	> 1000 nM	> 1000 nM	100 to 1000 nM	100 to 1000 nM	> 1000 nM	> 1000 nM	100 to 1000 nM	–	> 1000 nM	> 1000 nM	100 to 1000 nM	100 to 1000 nM	> 1000 nM	> 1000 nM	> 1000 nM	–
CCOc1ccccc1C(=O)c1oc2ccc(NC(=O)OC(C)(C)C)cc2c1N [Example 51]	> 1000 nM	> 1000 nM	> 1000 nM	> 1000 nM	> 1000 nM	> 1000 nM	> 1000 nM	–	> 1000 nM	> 1000 nM	> 1000 nM	> 1000 nM	> 1000 nM	> 1000 nM	> 1000 nM	–
CCOc1ccc2oc(C(=O)c3cc(F)ccc3N3CC=CCC3)cc2c1 [Example 111]	> 1000 nM	10 to 100 nM	< 10 nM	< 10 nM	–	–	–	–	> 1000 nM	10 to 100 nM	< 10 nM	< 10 nM	10 to 100 nM	10 to 100 nM	–	–
COc1ccc2oc(C(=O)c3cccnc3N3CCOCC3)cc2c1 [Example 39, 5-Methoxy-2-(2-morpholino-3-pyridylcarbonyl)-benzofuran]	> 1000 nM	–	10 to 100 nM	–	–	–	10 to 100 nM	–	> 1000 nM	–	10 to 100 nM	–	–	–	–	EC50 [1, 20]: 10 to 100 nM; EC50 [2, 21]: 10 to 100 nM; EC50 [2, 22]: 10 to 100 nM; IC50 ([3]; Homo sapiens): 10 to 100 nM; IC50 [4, 23]: 10 to 100 nM; IC50 [4, 24]: 10 to 100 nM; IC50 [4, 25]: 10 to 100 nM; EC50 [6, 26]: 10 to 100 nM; EC50 [6, 27]: 10 to 100 nM; EC50 [6, 28]: 100 to 1000 nM
O=C(c1cc2cc(O)ccc2o1)c1cc(F)ccc1N1CC=CCC1 [Example 112]	> 1000 nM	10 to 100 nM	10 to 100 nM	10 to 100 nM	–	–	–	–	> 1000 nM	10 to 100 nM	10 to 100 nM	10 to 100 nM	10 to 100 nM	10 to 100 nM	–	–
COc1ccc2oc(C(=O)c3cc(F)ccc3N3CCCCC3)cc2c1 [Example 95]	–	–	–	–	10 to 100 nM	10 to 100 nM	10 to 100 nM	10 to 100 nM	–	–	–	–	–	–	10 to 100 nM	–
Nc1c(C(=O)c2ccccc2N2CCOCC2)sc2ncc([N+](=O)[O-])cc12 [Example 131]	–	> 1000 nM	–	> 1000 nM	> 1000 nM	> 1000 nM	> 1000 nM	> 1000 nM	–	> 1000 nM	> 1000 nM	> 1000 nM	> 1000 nM	> 1000 nM	–	–

Further lines, with some results ahead:

EC50 [1, 8]	EC50 [2, 9]	EC50 [2, 10]	EC50 [2, 11]	IC50 [4, 12]	IC50 [4, 13]	IC50 [4, 14]	IC50 [4, 15]	EC50 [5]	EC50 [6, 16]	EC50 [6, 17]	EC50 [6, 18]	EC50 [6, 19]	SMILES	EC50 [1, 7]	IC50 [3]	other results
> 1000 nM	100 to 1000 nM	100 to 1000 nM	10 to 100 nM	10 to 100 nM	100 to 1000 nM	10 to 100 nM	10 to 100 nM	> 1000 nM	100 to 1000 nM	100 to 1000 nM	10 to 100 nM	100 to 1000 nM	CC1CN(c2ncccc2C(=O)c2oc3ccc(Cl)cc3c2N)CC(C)O1 (stereo not shown) [Example 83]	100 to 1000 nM	10 to 100 nM	–
> 1000 nM	> 1000 nM	100 to 1000 nM	100 to 1000 nM	100 to 1000 nM	100 to 1000 nM	10 to 100 nM	10 to 100 nM	> 1000 nM	> 1000 nM	10 to 100 nM	100 to 1000 nM	100 to 1000 nM	CCOc1ccccc1C(=O)c1oc2ccccc2c1N [Example 55]	> 1000 nM	100 to 1000 nM	–
> 1000 nM	–	> 1000 nM	–	–	–	> 1000 nM	–	> 1000 nM	–	> 1000 nM	–	–	COc1ccc(OC)c(C(=O)c2oc3ccccc3c2O)c1 [Reference Example A, 2-(2,5-dimethoxybenzoyl)-3-hydroxybenzofuran, reference compound]	–	–	EC50 [1, 20]: > 1000 nM; EC50 [2, 21]: > 1000 nM; EC50 [2, 22]: > 1000 nM; IC50 ([3]; Homo sapiens): > 1000 nM; IC50 [4, 23]: > 1000 nM; IC50 [4, 24]: > 1000 nM; IC50 [4, 25]: > 1000 nM; EC50 [6, 26]: > 1000 nM; EC50 [6, 27]: > 1000 nM; EC50 [6, 28]: > 1000 nM
> 1000 nM	100 to 1000 nM	10 to 100 nM	10 to 100 nM	10 to 100 nM	100 to 1000 nM	10 to 100 nM	10 to 100 nM	> 1000 nM	100 to 1000 nM	10 to 100 nM	10 to 100 nM	> 1000 nM	CCOc1ccc(F)cc1C(=O)c1oc2ccc(OC)cc2c1NC(=O)OC [Example 49]	> 1000 nM	10 to 100 nM	–
> 1000 nM	> 1000 nM	> 1000 nM	> 1000 nM	> 1000 nM	> 1000 nM	> 1000 nM	–	> 1000 nM	> 1000 nM	> 1000 nM	> 1000 nM	> 1000 nM	CCOc1ccc(F)cc1C(=O)c1cc2cc(OCCN(C)C)ccc2o1 [Example 71]	> 1000 nM	> 1000 nM	–
> 1000 nM	100 to 1000 nM	10 to 100 nM	10 to 100 nM	100 to 1000 nM	10 to 100 nM	< 10 nM	–	> 1000 nM	100 to 1000 nM	10 to 100 nM	10 to 100 nM	> 1000 nM	C=CCOc1ccc2oc(C(=O)c3cc(F)ccc3OCC)cc2c1 [Example 67]	> 1000 nM	10 to 100 nM	–
> 1000 nM	100 to 1000 nM	10 to 100 nM	10 to 100 nM	10 to 100 nM	10 to 100 nM	< 10 nM	< 10 nM	> 1000 nM	100 to 1000 nM	100 to 1000 nM	10 to 100 nM	100 to 1000 nM	CCOc1ccc(F)cc1C(=O)c1oc2ccccc2c1N [Example 56]	> 1000 nM	10 to 100 nM	–
> 1000 nM	–	< 10 nM	–	–	–	10 to 100 nM	–	> 1000 nM	–	–	–	–	CCOc1ccc(F)cc1C(=O)COc1ccc(Cl)cc1C#N [Example 143, ω-(4-Chloro-2-cyanophenoxy)-2-ethoxy-5-fluoroacetophenone]	–	–	EC50 [1, 20]: < 10 nM; EC50 [2, 21]: 10 to 100 nM; EC50 [2, 22]: < 10 nM; IC50 ([3]; Homo sapiens): 10 to 100 nM; IC50 [4, 23]: 10 to 100 nM; IC50 [4, 24]: 10 to 100 nM; IC50 [4, 25]: 10 to 100 nM; EC50 [6, 26]: 10 to 100 nM; EC50 [6, 27]: < 10 nM; EC50 [6, 28]: 10 to 100 nM

From patent US8486996B2, “Aroylfuranes and aroylthiophenes” (Basilea Pharmaceutica AG, priority 2006, dated 2013)
